Reference: BigSolDB 2.1

Oc1cc(O)c2cc(O)c(-c3cc(O)c(O)c(O)c3)[o+]c2c1.[Cl-]
solubility (mole fraction)
Details | 298.15 K | 303.15 K | 308.15 K | 313.15 K | 318.15 K | 323.15 K | 328.15 K | 333.15 K | 338.15 K | 343.15 K
in acetone | 5.5e-11 | 6.6e-11 | 7.1e-11 | 7.7e-11 | 8.7e-11 | 9.8e-11 | 1.06e-10 | 1.24e-10 | 1.35e-10 | 1.57e-10
in ethanol | 5.73e-08 | 6.13e-08 | 7.04e-08 | 7.7e-08 | 8.59e-08 | 9.8e-08 | 1.06e-07 | 1.23e-07 | 1.37e-07 | 1.56e-07
in methanol | 5.86e-07 | 6.62e-07 | 7.71e-07 | 8.77e-07 | 9.71e-07 | 1.05e-06 | 1.26e-06 | 1.4e-06 | 1.53e-06 | 1.69e-06
in water | 5.35e-07 | 6.39e-07 | 6.98e-07 | 7.87e-07 | 8.69e-07 | 1.02e-06 | 1.11e-06 | 1.24e-06 | 1.48e-06 | 1.64e-06
